According to patent publication US20150368617A1, “METHOD FOR FORMING ENDOTHELIAL CELLS” (Korea Advanced Institute of Science and Technology (KAIST), priority 2012, published 2015):

What was measured:
Flk1+ MPCs [1] = assay: Differentiation and expansion of ECs from Flk1+ MPCs in feeder cell-free 2D Matrigel system, FACS of CD31+/CD144+ ECs; assay type: cell-based, mouse; conditions: for EC population: other ROCK inhibitors
Experimental: E14tg2a ESC cell line was a generous gift from Dr. Jun K. Yamashita (Kyoto University), and R1 ESC cell line was purchased from American Type Cell Culture. Mouse iPSC derived from FVB strain was a generous gift from Drs. Hyun-Jai Cho and Hyo-Soo Kim (Seoul National University Hospital). To obtain Flk1+ MPCs, ESCs and iPSCs were cultured on 0.1% gelatin-coated plates at a density of 1-2×10^3 cells/cm^2 in differentiation medium [┌−minimal essential medium (Invitrogen) supplemented with 10% fetal bovine serum (FBS)] without leukemia inhibitory factor (LIF). At day 4.5, the Flk1+ MPCs were purified by AutoMACS™Pro Separator (Miltenyi Biotec) with biotin-conjugated anti-mouse Flk1 antibody (clone AVAS12a1, eBioscience) and streptavidin MicroBeads (Miltenyi Biotec). The Flk1+MPCs were then subsequently plated onto Matrigel (BD Biosciences)-coated plates at a density of 1˜2×10^4 cells/cm^2, and were cultured in differentiation medium supplemented with VEGF-A165 (50 ng/ml, Peprotech). To purify the ECs from the differentiating Flk1+ cells, the cells were first dissociated and resuspended in HBSS/2% FBS, and were serially incubated with anti-mouse ICAM2 antibody (rat monoclonal, clone 3C4, Biolegend) for 10 min and with anti-rat IgG Microbead (Miltenyi Biotec) for 15 min. […] VEGF-Trap was prepared as previously described. Various signaling inhibitors and activators including SB203580, PD98059, KT5720, Go6976, KT5823, LY294002, rapamycin, Y27632, SB431542, Rho-kinase inhibitor (RKI; H-1152, isoquinolinesulfonamide), and Rho-kinase inhibitor II (RKI-II; pyridyl urea) were purchased from Calbiochem and Sigma-Aldrich.
Cells were harvested with 0.25% trypsin-EDTA (Invitrogen) or dissociation buffer (Invitrogen) and resuspended in HBSS/2% FBS at 1×10^6 cells per 100┌ l. The cells were incubated for 20 min with the following antibodies: biotin-conjugated anti-mouse Flk1 (clone AVAS12a1, eBioscience), allophycocyanin (APC)-conjugated anti-mouse CD140a (clone APA5, eBioscience), phycoerythrin(PE)-conjugated anti-mouse CD31 (clone 390, eBioscience), Alexa Fluor® 647-conjugated anti-mouse CD144 (clone BV13, eBioscience), PE-conjugated anti-mouse D114 (clone HMD4-1, Biolegend), PE-conjugated anti-mouse Tie2 (clone TEK4, eBioscience), PE-conjugated anti-mouse Endoglin (clone MJ7/18, Biolegend), anti-mouse ICAM2 (clone 3C4, Biolegend), APC-conjugated anti-mouse CD140b (clone APBS, eBioscience), PE-conjugated anti-mouse LYVE1 (clone ALY7, eBioscience), anti-mouse VEGFR3 (goat polyclonal, R&D systems), anti-mouse EphB4 (clone VEB4-7E4, Hycult biotech), and PE-conjugated anti-mouse Notch1 (clone HMN1-12, Biolegend). After washing in HBSS/2% FBS twice, the cells were incubated with the following secondary antibodies: PE-conjugated streptavidin (eBioscience), PE-conjugated anti-rat IgG2a (eBioscience), and FITC-conjugated anti-goat IgG (Invitrogen). Dead cells were excluded by 7-aminoactinomycin D (7-AAD, Invitrogen).
Flk1+ MPCs derived from mouse ESCs are capable of differentiating into ECs, hematopoietic cells, mural cells (MCs), and cardiomyocytes. To avoid cell contamination from using feeder cells for differentiation of Flk1+ MPCs, we have established a feeder cell-free 2D Matrigel system (FIG. 1A). Flk1+ MPCs were differentiated from E14tg2a ESC cell line, and when the Flk1+ MPCs were purified at day 4.5 and cultured on Matrigel-coated plates in the differentiation medium, colonies of CD144+ ECs surrounded by ┌ SMA+MCs were formed (FIG. 1B). At day 6.5, population of CD144+/CD31+ ECs grown in differentiation medium was ˜4%, whereas the same EC population was increased up to ˜20% when VEGF-A (50 ng/ml) was supplemented (FIG. 1C). For following experiments, we chose to use 50 ng/ml of VEGF-A (hereafter referred to as VEGF-A) based on its maximal effect on differentiation and expansion of ECs from Flk1+ MPCs.

Flk1+ MPCs [2] = assay: Differentiation of MCs from Flk1+ MPCs, FACS of αSMA+ MCs; assay type: cell-based, mouse; conditions: Y27632 10 μM; ML7 5 μM
Experimental: FIGS. 11A-11D. ROCK suppression promotes the differentiation of ECs through PTEN-Akt signaling and inhibits the differentiation of MCs through MyPT-MLC signaling. (FIG. 11A) Representative FACS analysis of CD31+/CD144+ ECs incubated with 0.1% DMSO or LY294002 (20┌ M; LY) in the presence of PBS (Control) or Y27632 (10┌ M; Y). (FIG. 11B) % of CD31+/CD144+ EC population. Each group, n=3. *p<0.01 versus 0. Each group, n=3. *p<0.01 versus DMSO; ^#p<0.01 versus Y27632. (FIG. 11C) Representative FACS analysis of ┌ SMA+MCs or CD144+ ECs incubated with 0.1% DMSO or ML7 (5 ┌ M) in the presence of PBS (Control) or Y27632 (10┌ M). (FIG. 11D) % of ┌ SMA+MC population. Each group, n=3. *p<0.01 versus 0. Each group, n=3. *p<0.01 versus DMSO. n.s. represents statistically non-significant.
Analysis and sorting for CMs were performed at day 10.5. We harvested differentiated Flk1+ MPCs on OP9 cells with 0.25% trypsin-EDTA or dissociation buffer (Invitrogen). Cardiac troponin-T (cTnT)+ and ┌ smooth muscle actin (SMA)+ cells were analyzed after permeabilization using Cytofix/Cytoperm solution (BD Biosciences) for 15 min. After permeabilization, the cells were incubated for 30 min with anti-mouse cTnT (NeoMarkers) monoclonal antibody. […] Data were analyzed using FlowJo Version 7.5.4 software (TreeStar).

## O=c1cc(N2CCOCC2)oc2c(-c3ccccc3)cccc12 [LY294002]
Flk1+ MPCs [1]; LY294002 20 μM with Y27632 under VEGF-A stimulus
  ROCK suppression-induced differentiation and expansion of ECs: almost completely suppressed
Flk1+ MPCs [1]; inhibitor treated with VEGF-A, day 6.5
  CD31+/CD144+ EC population: strongly reduced

## O=S(=O)(c1cccc2c(I)cccc12)N1CCCNCC1 [ML7]
Flk1+ MPCs [2]
  reduction of αSMA+MC population: ~31%

## O=C(Nc1ccncc1)Nc1c(Cl)cc(Cl)cc1Cl [RKI-II]
Flk1+ MPCs [1]
  EC population: similarly increased

## Cc1cncc2cccc(S(=O)(=O)N3CCCNC[C@@H]3C)c12 [RKI]
Flk1+ MPCs [1]
  EC population: similarly increased

## VEGF-Trap: blocks the action of VEGF-A; prepared as previously described
Flk1+ MPCs [1]; pretreatment of VEGF-Trap (5 μg/ml) during differentiation
  ROCK suppression-induced expansion of ECs: totally abolished
